In ChEMBL document CHEMBL2417377, “Hit-to-lead optimization and kinase selectivity of imidazo[1,2-a]quinoxalin-4-amine derived JNK1 inhibitors” (Bioorg Med Chem Lett, 2013):

Experiments:
[1] = molecular target: T1, Mitogen-activated protein kinase 8 (Homo sapiens, UniProt P45983); test: Inhibition of human recombinant histidine-tagged full-length JNK1 expressed in insect cells activated by GST-tagged MAP2K7 using ATF2 as substrate after 1 hr by luminescence plate reader analysis
[2] = molecular target: Mitogen-activated protein kinase 9 (Homo sapiens, UniProt P45984); test: Inhibition of JNK2 in human Jurkat cell lysates using desthiobiotin-tagged ATP probe AX9989 followed by trypsinization by LC/MS analysis
[3] = molecular target: T1, Mitogen-activated protein kinase 8; test: Inhibition of JNK1 in human Jurkat cell lysates using desthiobiotin-tagged ATP probe AX9989 followed by trypsinization by LC/MS analysis

T1 sequence (P45983 whole entry): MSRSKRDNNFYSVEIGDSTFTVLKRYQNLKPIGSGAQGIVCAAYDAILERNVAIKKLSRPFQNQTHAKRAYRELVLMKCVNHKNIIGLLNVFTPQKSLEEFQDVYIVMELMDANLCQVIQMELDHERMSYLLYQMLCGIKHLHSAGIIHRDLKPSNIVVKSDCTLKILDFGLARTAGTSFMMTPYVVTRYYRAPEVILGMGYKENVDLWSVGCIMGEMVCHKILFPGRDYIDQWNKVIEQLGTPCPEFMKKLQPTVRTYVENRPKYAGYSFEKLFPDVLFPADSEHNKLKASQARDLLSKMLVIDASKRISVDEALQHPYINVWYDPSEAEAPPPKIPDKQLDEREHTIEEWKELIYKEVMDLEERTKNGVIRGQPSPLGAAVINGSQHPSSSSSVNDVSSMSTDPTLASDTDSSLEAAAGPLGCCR
Mitogen-activated protein kinase 9, sequence (P45984 whole entry): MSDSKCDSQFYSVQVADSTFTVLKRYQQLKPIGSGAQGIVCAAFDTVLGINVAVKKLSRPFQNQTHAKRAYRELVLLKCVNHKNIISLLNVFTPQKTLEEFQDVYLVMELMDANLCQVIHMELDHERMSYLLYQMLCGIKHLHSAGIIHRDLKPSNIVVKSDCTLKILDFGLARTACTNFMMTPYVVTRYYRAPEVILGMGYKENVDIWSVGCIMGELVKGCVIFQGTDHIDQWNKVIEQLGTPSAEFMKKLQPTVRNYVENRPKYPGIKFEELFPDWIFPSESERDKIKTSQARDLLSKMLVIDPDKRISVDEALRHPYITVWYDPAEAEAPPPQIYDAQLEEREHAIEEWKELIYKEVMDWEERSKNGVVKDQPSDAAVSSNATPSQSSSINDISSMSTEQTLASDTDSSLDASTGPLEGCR

Row | Compound | IC50 [1] [nM] | IC50 [2] [nM] | IC50 [3] [nM]
1 | O=C(NCc1ccccc1)c1ccc2c(c1)nc(N[C@H]1CC[C@H](O)CC1)c1nccn12 | 490 | – | –
2 | O=C(NC1(c2ccc(Cl)cc2)CC1)c1ccc2nc(N[C@H]3CC[C@H](O)CC3)c3nccn3c2c1 | 190 | > 190 | 140
3 | FC1(F)CCC(Nc2nc3ccccc3n3ccnc23)CC1 | 8000 | – | –
4 | O[C@H]1CC[C@H](Nc2nc3ccccc3n3cccc23)CC1 | > 100000 | – | –
5 | O=C(NC1(c2ccccc2)CCCC1)c1ccc2nc(N[C@H]3CC[C@H](O)CC3)c3nccn3c2c1 | 180 | – | –
6 | O=C(NC1(c2ccccc2)CCCCC1)c1ccc2nc(N[C@H]3CC[C@H](O)CC3)c3nccn3c2c1 | 1220 | – | –
7 | N[C@H]1CC[C@H](Nc2nc3ccccc3n3ccnc23)CC1 | 1700 | – | –
8 | C[C@@H](NC(=O)c1ccc2c(c1)nc(N[C@H]1CC[C@H](O)CC1)c1nccn12)c1ccccc1 | 1500 | – | –
9 | CS(=O)(=O)N[C@H]1CC[C@H](Nc2nc3ccccc3n3ccnc23)CC1 | 2400 | – | –
10 | O=C(O)c1ccc2c(c1)nc(N[C@H]1CC[C@H](O)CC1)c1nccn12 | 1500 | – | 82
11 | O=C(NC1(c2ccccc2)CCCCCC1)c1ccc2nc(N[C@H]3CC[C@H](O)CC3)c3nccn3c2c1 | 430 | – | –
12 | O=C(N[C@@H](CO)c1ccccc1)c1ccc2nc(N[C@H]3CC[C@H](O)CC3)c3nccn3c2c1 | 4900 | – | –
13 | O=C(NC(c1ccccc1)c1ccccc1)c1ccc2nc(N[C@H]3CC[C@H](O)CC3)c3nccn3c2c1 | 360 | – | –
14 | O[C@H]1CC[C@H](NC2=Nc3ccccc3N3CCN=C23)CC1 | 73000 | – | –
15 | Cc1ccc(C2(NC(=O)c3ccc4nc(N[C@H]5CC[C@H](O)CC5)c5nccn5c4c3)CC2)cc1 | 250 | – | –
16 | CCC(CC)(NC(=O)c1ccc2nc(N[C@H]3CC[C@H](O)CC3)c3nccn3c2c1)c1ccccc1 | 160 | > 190 | 59
17 | CC[C@H](NC(=O)c1ccc2nc(N[C@H]3CC[C@H](O)CC3)c3nccn3c2c1)c1ccccc1 | 1700 | – | –
18 | O=C(N[C@H](CCO)c1ccccc1)c1ccc2nc(N[C@H]3CC[C@H](O)CC3)c3nccn3c2c1 | 620 | – | –
19 | CC(C)[C@@H](NC(=O)c1ccc2nc(N[C@H]3CC[C@H](O)CC3)c3nccn3c2c1)c1ccccc1 | 350 | – | –
20 | O=C(NCc1ccccc1)c1ccc2nc(N[C@H]3CC[C@H](O)CC3)c3nccn3c2c1 | 680 | – | –
21 | COC[C@@H](NC(=O)c1ccc2nc(N[C@H]3CC[C@H](O)CC3)c3nccn3c2c1)c1ccccc1 | 690 | – | –
22 | NC(=O)c1ccc2c(c1)nc(N[C@H]1CC[C@H](O)CC1)c1nccn12 | 4170 | – | –
